# Laboratory results as given in patent US7732199B2, “Process for making transplantable cardiomyocytes from human embryonic stem cells” (Geron Corporation, priority 2001, dated 2010).
# Legend:
# [1] = system: Undifferentiated hES cells of the H7 line; test: Direct differentiation of plated hES cells to contracting cardiomyocytes; type: cell-based, human; conditions: 10 μM at day 10-12 or 12-14; no embryoid body stage
# Experimental: Cardiomyocyte differentiation was also achieved in a direct differentiation paradigm. Undifferentiated hES cells of the H7 line were dissociated and plated directly onto gelatin-coated plates without going through an embryoid body stage. The plated cells were cultured in differentiation medium (80% KO-DMEM, 1 mM L-glutamine, 0.1 mM β-mercaptoethanol, 1% amino acids, and 20% fetal bovine serum). Contracting cardiomyocytes were found at day 18 in cultures treated with 10 μM 5-aza-deoxy-cytidine at day 10-12 or 12-14, and at later times in all cultures.
# [2] = system: hES cells of the H1 or H9 line being cultured as embryoid bodies
# [3] = system: cardiomyogenic cell line developed from bone marrow stroma; conditions: treated for 24 hours; cited from earlier work
# [4] = system: hES-derived cardiomyocytes; test: Pharmacological response: contraction rate of beating areas of hES-derived cardiomyocytes; type: cell-based, human; conditions: for chronotropic effect: FIG. 5 Panels B to E
# Experimental: EBs were plated on to gelatin-coated 24-well plates and allowed to differentiate, as in Example 2. Contracting cardiomyocytes at differentiation day 15-21 were used for examining pharmacological response. The frequency of the spontaneous beating was measured by counting the contraction rate of the beating areas maintained in the differentiation medium in a 37° C. heating chamber of an inverted microscope. The cells were then incubated with test compounds in the incubator for 20-30 min, and observed for contraction rate. Dose-dependent effects were determined by cumulatively applying of increasing concentrations of each substrate. Data represent the mean pulsation rate±standard error of the mean measured on 10-20 beating areas.
# Differentiated cells were incubated with various concentrations of the drug and the number of beats per minute was counted. The cells were then washed with medium, maintained in differentiation medium for 24 h and observed for the time taken to recover contractility.
smiles,measurement,setting,value
Nc1ncn([C@H]2C[C@H](O)[C@@H](CO)O2)c(=O)n1 [5-aza-deoxy-cytidine],day at which contracting cardiomyocytes were found,[1],18 days
same,proportion of beating areas in the culture,[2]; 1 to 10 μM at day 6-8,increased
same,expression of cardiac α-MHC (ratio of αMHC to 18S RNA),"[2]; 1 to 10 μM at day 6-8, harvested at day 15",significantly increased
Nc1ncn([C@@H]2O[C@H](CO)[C@@H](O)[C@H]2O)c(=O)n1 [5-azacytidine],"cells forming myotube-like structures, acquiring cardiomyocyte markers and beginning to beat",[3],30%
"C[S+](C)[O-] [DMSO, dimethyl sulfoxide]",toxicity to the cells,[2],toxic
same,beating areas compared with non-treated cultures,[2]; 0.5% from days 0-4,fewer
same,beating cells,[2]; 0.8% or 1%,absent
same,α-MHC expression compared with untreated cultures,[2]; DMSO treatment,significant reduction
"CC1=C(/C=C/C(C)=C/C=C/C(C)=C/C(=O)O)C(C)(C)CCC1 [RA, all-trans retinoic acid]",toxicity to the cells,[2],toxic
same,beating cells compared with untreated cultures,"[2]; doses between 10^−9 and 10^−5 M, at days 4-8, 8-15, or 4-15",no increase
CC(C)(C)NCC(O)c1cc(Cl)c(N)c(Cl)c1 (stereo not shown) [clenbuterol],beating rate after treatment,"[4]; 1-10 nM, cells taken at Day 72, from about 72 beats/min, p<0.005",about 98 beats/min
COc1ccc([C@@H]2Sc3ccccc3N(CCN(C)C)C(=O)[C@@H]2OC(C)=O)cc1 [diltiazem],beating areas that stopped contraction,[4]; 10^−5 M,100%
same,time until contraction recovered to normal levels after removal of the drug,[4]; cells washed and kept in differentiation medium,24 to 48 h
same,beating rate,"[4]; various concentrations, incubated 20-30 min, differentiation day 15-21, FIG. 5 Panel A",inhibited
CC(C)NCC(O)c1ccc(O)c(O)c1 (stereo not shown) [isoprenaline],chronotropic effect,[4],positive chronotropic effects
CNC[C@H](O)c1cccc(O)c1 [phenylephrine],chronotropic effect,[4],positive chronotropic effects
